Results as given in ChEMBL document CHEMBL1130665, “Synthesis and biological evaluation of a water soluble phosphate prodrug of 3-aminopyridine-2-carboxaldehyde thiosemicarbazone (3-AP)” (Bioorg Med Chem Lett, 1998).

What was measured:
[1] = Compound was evaluated for plasma clearance.; format: ADME, organism-based, Canis lupus familiaris; conditions: dog
Canis familiaris = organism: Canis familiaris; assay: Compound was evaluated for area under the curve in dog blood.; format: ADME, organism-based, Canis lupus familiaris; conditions: in vivo
M109 [2] = assay: In vivo antitumor activity evaluated against M-109 murine lung carcinoma cells in BALB/c mice administered intraperitoneally at a dose of 10 mg/kg; format: functional, Mus musculus; conditions: route intraperitoneal
M109 [3] = assay: In vivo antitumor activity evaluated against M-109 murine lung carcinoma cells in BALB/c mice administered intraperitoneally at a dose of 4.5 mg/kg; format: functional, Mus musculus; conditions: route intraperitoneal

| Compound | clearance [1] [mL/min/kg] | AUC (Canis familiaris) [mg/min/L] | Tumor volume reduction (M109 [2]) [%] | Tumor volume reduction (M109 [3]) [%] |
| --- | --- | --- | --- | --- |
| N/C(S)=N/N=C/c1ncccc1NC(=O)OCc1ccc(OP(=O)([O-])[O-])cc1.[Na+].[Na+] | 43.8 | 74.04 | 46 |  |
| NC(=S)N/N=C/c1ncccc1N [TRIAPINE] | 40.6 | 71.59 |  | 30 |
